From US7807162B2, “Single domain VHH antibodies against von Willebrand factor” (Ablynx N.V., priority 2005, dated 2010)
“And” between values parts separate entries of the source, which are not always exact repeats. Equal values may be shown once.

Experiments:
[1] = system: cyclic flow reductions (CFRs) in injured, stenosed femoral artery; test: Folts thrombosis model in baboons: length/inhibition of cyclic flow reductions (CFRs); type: in vivo, baboon (Papio ursinus); settings: for Length of CFRs: individual baboons 16-24; for effective dose: Folts model
Description: The study protocol that was applied is the original Folts model and some modifications described below (Folts J D, et al, Circulation. 1976; 54:365-370). Healthy male or female baboons (Papio ursinus) were used. The animals were 8-17 kg of weight and were disease-free for at least 2 weeks prior to use. The baboons were fed with dry standard food only. The baboons were used at different time points. […] Animals were anaesthetized and body temperature is maintained at 37° C. with a heating table. A segment of a femoral artery was dissected free from surrounding tissue. A shunt was placed between the femoral vein and femoral artery to obtain high shear rates. The mean and phasic blood flow was recorded continuously throughout the experiment. Baseline flow was recorded for 20 minutes. […] A clamp was placed over the injured site to create an external stenosis. A gradual decline in blood flow due to platelet adhesion and aggregation was observed. When flow was reduced to zero, blood flow was restored by opening the clamp to dislodge the platelet-rich thrombus. This repetitive pattern of decreasing blood flow following mechanical restoration is referred to as cyclic flow reductions (CFRs). Additional endothelial injury was repeated if needed to finally obtain stable CFRs in these baboons. The number of times the thrombus needed to be dislodged determines the number of CFRs. FIG. 24 illustrates blood flow pattern during the Folts model in baboons. […] This procedure was repeated for several times with escalating doses of the test substance. The anti-thrombotic effect was quantified by comparing the length of CFRs before and after drug administration. When full inhibition of CFRs was observed, a new injury was applied in order to confirm that the inhibition was an effect of the treatment but not of a natural healing phenomenon.

[2] = system: cyclic flow reductions (CFRs) in injured, stenosed femoral artery; test: Folts model in baboons: Aspegic-Heparin-Plavix combination with ALX-0081 on top; type: in vivo, baboon (Papio ursinus)
Description: Extra Heparin was administered at different time points to sustain a certain level (aPTT should be at least doubled versus control). […] The anti-thrombotic effect was quantified by comparing the length of CFRs before and after drug administration. When full inhibition of CFRs was observed, a new injury was applied. Epinephrin was injected and continued till the end of the experiment. […] (1), 3, 10 or 30 μg/kg. […] The specifications of the baboons that were used in this study are represented in table 49.

[3] = system: cyclic flow reductions (CFRs) in injured, stenosed femoral artery; test: Use of vWF as an antidote for ALX-0081 in the baboon Folts model; type: in vivo, baboon (Papio ursinus)
From the text: The experimental procedure followed the original Folts model with the modifications as described in the previous example 18.
Healthy male baboons (Papio ursinus) were used in this study. The animals were 9-12 kg of weight and were disease-free for at least 2 weeks prior to use. The baboons were fed with dry standard food only.

[4] = system: platelet adhesion to endothelial cell-derived ULvWF; test: Platelet string formation on ULvWF of histamine-stimulated endothelial cells (perfusion); type: cell-based, human; settings: 0.2, 2 and 10 μg/ml; platelets in buffer or TTP plasma; 2.5 dyn/cm2, 4 minutes
Description: Endothelial cells were obtained from human umbilical cord veins by the method of Maruyama (Z. Zellforsch. Mikrosk. A4nat. 60:69; 1963). Endothelial cells were activated with 100 μM histamine (Sigma-Aldrich, St Louis, Mo.) for 15 minutes at room temperature before the perfusion experiments.
Blood was drawn from healthy volunteers who denied ingestion of aspirin or other nonsteroidal anti-inflammatory drugs (NSAIDs) for the preceding 10 days into one-tenth volume 3.4% sodium citrate. Platelet-rich plasma (PRP) was prepared from whole blood by centrifugation (10 minutes at 200 g at room temperature). […] The platelet pellet was resuspended in HEPES (N-2-hydroxyethylpiperazine-N′-2-ethanesulfonic acid)-Tyrode buffer (10 mM HEPES, 137 mM NaCl, 2.68 mM KCl, 0.42 mM NaH2PO4, 1.7 mM MgCl2, 5 mM D-glucose, pH 6.5). Prostacyclin (PGI2, 10 ng/mL) was added to prevent platelet activation during the subsequent washing step. Platelets were spun down and resuspended in a small volume of HEPES-Tyrode buffer. This platelet suspension was diluted in HEPES buffer at pH 7.4, or in TTP plasma. […]
Endothelial cells were isolated from freshly obtained human umbilical cords by collagenase digestion of the interior of the umbilical vein. […] These ULvWF-adhered platelets appear as so-called ‘strings’, which are visible when the perfusion experiment is monitored by real-time video microscopy (FIG. 41). […]

[5] = system: ADAMTS-13; test: Cleavage of recombinant A1-A2-A3 vWF fragment by ADAMTS-13 (Western Blot); type: biochemical, human; settings: 10 μg/ml; normal pool plasma
Description: In a second type of experiment, different reaction mixtures were prepared as summarized in table 60, however, without the addition of the A1A2A3 construct. The A1A2A3 construct is a recombinant fragment consisting out of the A1, A2 and A3 domain of vWF. Mixtures were pre-incubated for 5 minutes at 37° C. after which the A1A2A3 fragment is added and the mixture is incubated in a waterbath overnight at 37° C. […] The blot was blocked for 2 hours at room temperature with blockbuffer (1:1 Odyssey blockbuffer in 1×TBS pH=7.4) and incubated with Rabbit polyclonal anti-vWF (DAKO). Alexa Fluor 680 goat anti-rabbit was used for detection. Scanning was done on the ODYSSEY to detect the degradation products.
In a second assay, a recombinant fragment containing the A1-A2-A3 domain of vWF was mixed with normal pool plasma (NPP) containing ADAMTS-13, resulting in proteolytic cleavage of the fragment which was observed by a Western Blot analysis.

[6] = system: ristocetin-induced platelet aggregation; test: Ristocetin-induced platelet aggregation (RIPA) ex vivo in blood of treated baboons
Description: Platelet aggregations were performed on a Chronolog whole blood and optical Aggregometer (Model 560CA, Chronolog, USA). PRP was prepared (collected on 0.38 mol/L citrate), by centrifuging the whole blood at 1200 rpm for 5 minutes. The upper fraction containing the PRP was carefully removed. The lower fraction was further centrifuged at 3000 rpm for 10 minutes to prepare platelet poor plasma (PPP). Platelets were counted in PRP and diluted in PPP to a final concentration of 200.000 platelets per microliter. 3 mg/ml ristocetin (DAKO) was added and aggregation was measured.
The GPIb-IX-V dependent platelet aggregation through vWF is measured using ristocetin as a modulator. The % aggregation is measured at each time point and at each dose.

[7] = number of experiments with inhibition / total number of independent repeats

ALX-0081: ALX-0081 (SEQ ID NO:98), Nanobody; humanised bivalent nanobody with the 3a linker
Length of CFRs ([1]; ALX-0081-treated, after Epinephrin): >1200 s (2×) and >900 s (7×) | Length of CFRs ([1]; ALX-0081 final dose 3 μg/kg): 295 s and 193 s and 144 s and 133 s and 183 s and 312 s and 112 s | Length of CFRs ([1]; ALX-0081 final dose 13 μg/kg): 380 s and 913 s and >1800 s (2×) and 298 s and 237 s and 620 s and 525 s and 213 s | Length of CFRs ([1]; ALX-0081 final dose 43 μg/kg): >1800 s | Length of CFRs ([1]; ALX-0081 final dose 133 μg/kg): >1800 s | effective dose [1]: 30 µg/kg | effective dose ([1]; inhibition of CFRs, final dose, ALX-0081: + […] dose/kg/hour): 13-43 μg/kg + | final dose at which full inhibition of CFRs was obtained ([1]; all baboons (nine)): 0.043 mg/kg | dose at which full inhibition of CFRs was obtained ([1]; all baboons (nine), bolus followed by 45 μg/kg/hour infusion): 0.03 mg/kg | dose at which full inhibition of CFRs was already obtained ([1]; baboons 17 and 22, bolus followed by 15 μg/kg/hour infusion): 0.01 mg/kg | CFRs upon a new injury ([1]; new injury applied at full inhibition of CFRs): Inhibition was retained | Inhibition of CFRs [1, 7]: 9/9 | Inhibition of CFRs after administration of Epinephrin [1, 7]: 9/9 | Inhibition of CFRs after new injury [1, 7]: 9/9 | CFRs upon a new injury ([2]; at the effective dose of ALX-0081 on top of the combination): the CFRs did not return | dose at which full inhibition of the CFRs was obtained ([2]; on top of Aspegic, Heparin, Plavix, continued Epinephrin infusion, all seven baboons): 0.03 mg/kg | Length of CFRs ([2]; on top of Aspegic/Heparin/Plavix combination: Epinephrin + effective dose ALX-0081, individual baboons 4-10): >1800 s | Length of CFRs ([3]; 30 μg/kg + 45 μg/kg/hour ALX-0081, baboons 1-3): >1800 s | dose at which full inhibition of CFRs was obtained ([3]; all three baboons, bolus followed by 45 μg/kg/hour): 0.03 mg/kg | CFRs upon a new injury ([3]; at 30 μg/kg+45 μg/kg/hour ALX-0081): the CFRs did not return | string formation of platelets on ULvWF [4]: complete inhibition of string formation | effect on the cleavage of the A1-A2-A3 vWF fragment by ADAMTS-13 [5]: no effect | relation between RIPA and the length of the CFRs ([6]; 3 mg/ml ristocetin): inverse relation | dose for full inhibition in RIPA versus full inhibition of CFRs ([6]; baboons 16, 18, 19 and 23): full inhibition in the RIPA test is obtained at lower doses than full inhibition of CFRs
